Entries after “also recorded” stand apart in the source; their conditions may differ. Like-named read-outs stand apart in the source and are kept apart here.
How the values were obtained:
[1] = anion; cited from earlier work
[2] = target: T1, OVA (Gallus gallus, UniProt P01012); assay: Stability of OVA combined with IL adjuvants (dialysis/SEC, circular dichroism, SDS page); format: physicochemical
T1 sequence (P01012 1-386): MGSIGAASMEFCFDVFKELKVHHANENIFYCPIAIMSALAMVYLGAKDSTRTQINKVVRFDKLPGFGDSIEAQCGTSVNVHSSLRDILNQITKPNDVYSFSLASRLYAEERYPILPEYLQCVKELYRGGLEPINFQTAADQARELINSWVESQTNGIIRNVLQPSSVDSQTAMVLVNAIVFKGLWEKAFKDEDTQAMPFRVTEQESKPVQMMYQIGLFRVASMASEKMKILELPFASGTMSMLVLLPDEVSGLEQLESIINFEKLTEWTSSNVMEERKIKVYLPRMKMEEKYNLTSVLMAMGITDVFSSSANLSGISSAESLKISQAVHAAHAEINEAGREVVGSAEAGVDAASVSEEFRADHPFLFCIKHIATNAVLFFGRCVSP
From the text: Anions were varied based on hydrophobicity (FIG. 8). […] ILs were screened for: • a. Stability of OVA. […] In vitro immune cell maturation and activation.
Role of the payload. […] Simple dialysis was replaced by SEC to remove OVA from ChoShorb formulations.

[3] = test system: LPO expression; assay: LPO expression with or without deferoxamine (ferroptosis indication); format: cell-based
[4] = test system: Balb/c mice
Procedure: Balb/c mice received one immunization with 10% IL (w/v) and ovalbumin as a model antigen. The antibody and humoral response was then measured.
(§1) Cytokine responses were measured 4 hours after injection.
Antibody responses were measured 14 days after injection.

[5] = test system: C57BL/6 mice
Procedure: C57BL/6 mice received two immunizations with 10% IL (w/v) and ovalbumin as a model antigen, at day 0 and day 14.
as §1
Antibody responses were measured 14 and 28 days after injection.
T cell responses were measured 7, 14, 21, or 28 days after injection.

[6] = lower doses, comparing across IL concentration
[7] = test system: primary dendritic cells; details: IL at varying concentrations, with or without OVA
Procedure: (§2) The impact of differential payloads impacting the ChoSorb response was investigated in vitro. The experiment was done with IL alone and IL+OVA at each concentration to understand how payload (OVA) impacts the cell death pathway since payload may impact the early cell death pathway. Cells were treated with IL at varying concentrations and with or without OVA, then stained with Annexin V and PI at 24 hours (FIGS. 28A-28B).

[8] = test system: mytotubes (C2C12 cells); details: IL at varying concentrations, with or without OVA
Procedure: as §2

[9] = test system: Balb/c and C57BL/6 mice; details: after priming and booster shot
Procedure: In vivo vaccination of OVA with IL adjuvants in Balb/c and C57BL/6 mice. Antigen-specific antibodies and CD8+ T cell responses were evaluated after priming and booster shot.

[10] = 10% ChoSorb injections
Procedure: Blood was drawn 4 and 24 hours after the initial dose, and the levels of IL6 and MCP-1 measured (FIGS. 11A-11D). The levels of Tetramer cells were measured at Day 21 and Day 35 (FIGS. 12A-12D). […] The antibody response was measured (FIGS. 13A-13B).

[11] = 4 hours after injection, 10% IL (w/v) with ovalbumin

With `CCCCCCCCC=CCCCCCC=CCCC(=O)O` [11,4-Eicosadienoic Acid] as the compound, how does the LogP [1] read?
The LogP was 7.9.

With `C=CC=CCCC(=O)O` [4,6-Heptadienoic acid] as the compound, how does the LogP [1] read?
The LogP was 1.5.

For `C=CCC/C=C/C(=O)O` [(2E)-hepta-2,6-dienoic acid], which LogP [1] is on record?
Its LogP is 1.6.

What does the source list for `C/C=C/C=C/C(=O)[O-].C[N+](C)(C)CCO` [ChoSorb, choline:sorbic acid]?
antigen (OVA) stability in IL formulation [2]: preserve antigen stability; also recorded: stable; binding of OVA by IL ([2]; simple dialysis replaced by SEC to remove OVA): bound strongly; LPO expression ([3]; early time points): induces LPO expression; LPO expression ([3]; treated with deferoxamine (DFO), an iron chelator): not when treated with deferoxamine (DFO); IL-6 concentrations [4, 11]: significantly higher; Total IgG antibody titers ([4]; Day 14): significantly increased; IL-6 concentrations [5, 11]: significantly higher; Total IgG antibody titers ([5]; Day 14): significantly increased; CD4+ memory T cells ([5]; Day 21): significant increase; Th1/Th2 antibody response (IgG2c, IgG1) ([5]; Day 28): balanced immune response; Total IgG antibody titers ([5]; Day 28): significantly increased; level of antigen-specific T cells (OVA-tetramer staining of CD8+ T cells) ([5]; especially after a booster vaccination): significantly increased; tetramer cell levels, separate vs combo delivery [6]: outperformed combo doses; chemokine and cytokine levels in the serum (24 hour mark): significantly higher than saline; chemokine and cytokine levels in the serum (48 hour mark): no significant difference from saline; CD4+ T cells (among infiltrating cell types): significant increase; CD45+ cell infiltration into the muscle (compared to saline): more significant rate; inflammatory monocytes (draining lymph node): increase; mature resident cDC1 dendritic cells (draining lymph node): increase; Neutrophils (draining lymph node (dLN) after IL injection): spiked; Monocytes (injection site): increased significantly; inflammatory monocytes (injection site): increased significantly; IL-6 (serum): upregulated; MCP-1 (serum): upregulated; apoptosis (Annexin V and PI) [7]: apoptosis occurs after 24 hours; apoptosis (Annexin V and PI) [8]: apoptosis occurs after 24 hours; antigen-specific immune response (T-cell and antibody) [9]: create an antigen-specific immune response in both T-cell and antibody responses; muscle tightness after injection [10]: cause muscle tightness over time

For `CCC/C=C/C=C\C(=O)O` [(2Z,4E)-Octa-2,4-dienoic acid], which LogP [1] is on record?
The LogP was 2.3.

Which LogP [1] does the source give for `C=CCCC/C=C/C(=O)O` [2E,7-Octadienoic acid] here?
Its LogP is 2.2.

With `CC(C)=C(C)/C=C/C(=O)O` [(2E)-4,5-dimethyl-2,4-hexadienoic acid] as the compound, how does the LogP [1] read?
The LogP was 2.5.

For `C=CC=CCCCC(=O)O` [5,7-Octadienoic acid], which LogP [1] is on record?
The LogP was 1.8.

With `C/C=C/CC/C=C/C(=O)O` [(2E,6E)-2,6-Octadienoic acid] as the compound, how does the LogP [1] read?
The LogP was 1.8.

With `CCC/C=C\CC/C=C\CCCCCC(=O)O` [(7Z,11Z)-pentadeca-7,11-dienoate] as the compound, how does the LogP [1] read?
Its LogP is 5.4.

Which LogP [1] does the source give for `CC=C(C)C=C(C)C(=O)O` [2,4-Dimethyl-2,4-hexadienoic acid] here?
Its LogP is 2.3.

For `C/C=C/C=C/C(=O)O` [Sorbic Acid], which LogP [1] is on record?
Its LogP is 1.43.

With `CC/C=C\C=C\C(=O)O` [2,4-Heptadienoic acid, (2E,4Z)-] as the compound, how does the LogP [1] read?
The LogP was 1.8.

For `CC=CCCC=CCC(=O)O` [Nona-3,7-dienoate], which LogP [1] is on record?
The LogP was 2.6.

For `C/C=C/C/C=C/C(=O)O` [(2E,5E)-2,5-Heptadienoic acid], which LogP [1] is on record?
The LogP was 1.6.

With `CCC=CC=CCC(=O)O` [Octa-3,5-dienoic acid] as the compound, how does the LogP [1] read?
Its LogP is 1.8.

With `C=CCC/C=C/CC(=O)O` [(3E)-3,7-octadienoic acid] as the compound, how does the LogP [1] read?
The LogP was 1.8.

For `C/C=C\CC/C=C\CCCCCCCC(=O)O` [(9Z,13Z)-pentadeca-9,13-dienoate], which LogP [1] is on record?
Its LogP is 5.5.

— patent US20260108600A1, “METHODS AND COMPOSITIONS RELATING TO IMPROVED IONIC LIQUID ADJUVANTS” (PRESIDENT AND FELLOWS OF HARVARD COLLEGE, priority 2022, published 2026)
